Data on 18 molecules can be found in PubChem BioAssay AID192 (DTP/NCI, 2004).

Structures are written as SMILES. Values joined by “and” are separate entries in the source; they are usually repeats but may differ in a detail not shown here. Identical values can stand only once. Toxic doses and inconclusive results are not listed.

The test system of the experiment is BDF1 mice, B16 melanoma ip, median survival T/C. As to the kind of experiment: NCI In Vivo Anticancer Drug Screen. Data for tumor model B16 Melanoma (intraperitoneal) in B6D2F1 (BDF1) mice. Particulars: endpoint: median survival time, higher = longer survival. An outline of the steps: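 Antitumor activity is assessed in mice bearing a transplanted tumor, with survival or tumor size compared against vehicle-dosed controls and expressed as T/C.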

Setting [1] is: dose: 12.5 mg/kg/injection, schedule: Q01DX009 (ip), vehicle: Klucel (hydroxypropylcellulose) (HPC).
Setting [2] is: dose: 100.0 mg/kg/injection, schedule: Q01DX009 (ip), vehicle: saline with Tween-80.
[3] abbreviates: dose: 200.0 mg/kg/injection, schedule: Q01DX009 (ip), vehicle: saline with Tween-80.
Setting [4] is: dose: 400.0 mg/kg/injection, schedule: Q01DX009 (ip), vehicle: saline with Tween-80.
Where [5] appears, read: dose: 50.0 mg/kg/injection, schedule: Q01DX009 (ip), vehicle: Klucel (hydroxypropylcellulose) (HPC).
Setting [6] is: dose: 100.0 mg/kg/injection, schedule: Q01DX009 (ip), vehicle: Klucel (hydroxypropylcellulose) (HPC).
The mark [7] stands for this setting: dose: 200.0 mg/kg/injection, schedule: Q01DX009 (ip), vehicle: Klucel (hydroxypropylcellulose) (HPC).
Where [8] appears, read: dose: 400.0 mg/kg/injection, schedule: Q01DX009 (ip), vehicle: Klucel (hydroxypropylcellulose) (HPC).
The mark [9] stands for this setting: dose: 100.0 mg/kg/injection, schedule: Q01DX009 (ip), vehicle: saline.
The mark [10] stands for this setting: dose: 200.0 mg/kg/injection, schedule: Q01DX009 (ip), vehicle: saline.

On to `COc1cc2ccc(/C=N/NC(N)=S)cc2cc1OC`, for which the T/C (dose: 25.0 mg/kg/injection, schedule: Q01DX009 (ip), vehicle: other) is 117 % of control; the T/C (dose: 50.0 mg/kg/injection, schedule: Q01DX009 (ip), vehicle: other) is 108 % of control; the T/C (dose: 100.0 mg/kg/injection, schedule: Q01DX009 (ip), vehicle: other) was 109 % of control; the T/C (dose: 200.0 mg/kg/injection, schedule: Q01DX009 (ip), vehicle: other) was 96 % of control.
On to `S=c1nc[nH]c2nc[nH]c12`, for which the T/C is 120 % of control (dose: 2.5 mg/kg/injection, schedule: Q01DX009 (ip), vehicle: other); 107 % of control (dose: 2.5 mg/kg/injection, schedule: Q01DX009 (ip), vehicle: saline); 112 % of control (dose: 5.0 mg/kg/injection, schedule: Q01DX009 (ip), vehicle: other); 110 % of control (dose: 5.0 mg/kg/injection, schedule: Q01DX009 (ip), vehicle: saline); 93 % of control (dose: 7.5 mg/kg/injection, schedule: Q01DX009 (ip), vehicle: Klucel (hydroxypropylcellulose) (HPC)); 94 % of control (dose: 9.38 mg/kg/injection, schedule: Q01DX009 (ip), vehicle: alkali diluted with water). Further, the T/C is 110 % of control (dose: 10.0 mg/kg/injection, schedule: Q01DX009 (ip), vehicle: saline); 90 % of control (dose: 11.3 mg/kg/injection, schedule: Q01DX009 (ip), vehicle: other); 110 % of control under setting [1]; 100 % of control (dose: 18.8 mg/kg/injection, schedule: Q01DX009 (ip), vehicle: alkali diluted with water); 160 % of control (dose: 20.0 mg/kg/injection, schedule: Q01DX009 (ip), vehicle: saline); 95 % of control (dose: 22.5 mg/kg/injection, schedule: Q01DX009 (ip), vehicle: other). Also, the T/C runs as follows: (dose: 25.0 mg/kg/injection, schedule: Q01DX009 (ip), vehicle: acid diluted with saline) 87 % of control; (dose: 30.0 mg/kg/injection, schedule: Q01DX009 (ip), vehicle: saline) 105 % of control; (dose: 37.5 mg/kg/injection, schedule: Q01DX009 (ip), vehicle: alkali diluted with water) 88 % of control; (dose: 40.0 mg/kg/injection, schedule: Q01DX009 (ip), vehicle: saline) 110 % of control; (dose: 75.0 mg/kg/injection, schedule: Q01DX009 (ip), vehicle: alkali diluted with water) 84 % of control; (dose: 78.0 mg/kg/injection, schedule: Q04DX003 (ip), vehicle: alkali diluted with water) 96 % of control. Further, the T/C (dose: 120.0 mg/kg/injection, schedule: Q04DX003 (ip), vehicle: alkali diluted with water) was 98 % of control; the T/C (dose: 150.0 mg/kg/injection, schedule: Q01DX009 (ip), vehicle: alkali diluted with water) is 46 % of control; the T/C (dose: 200.0 mg/kg/injection, schedule: Q04DX003 (ip), vehicle: alkali diluted with water) was 84 % of control; the T/C (dose: 333.0 mg/kg/injection, schedule: Q04DX003 (ip), vehicle: alkali diluted with water) was 81 % of control.
`O=[N+]([O-])c1ccc(/C=C/c2ccc([N+](=O)[O-])cc2S(=O)(=O)O)c(S(=O)(=O)O)c1`: the T/C reads like this: under setting [2], 104 % of control; under setting [3], 95 % of control; under setting [4], 109 % of control.
As to `O=C(Nc1ccccc1F)Nc1ccccc1Cl`, the T/C (dose: 25.0 mg/kg/injection, schedule: Q01DX009 (ip), vehicle: Klucel (hydroxypropylcellulose) (HPC)) was 96 % of control; the T/C under setting [5] was 92 % of control; the T/C under setting [6] was 92 % of control; the T/C under setting [7] is 95 % of control.
For `O=C(O)c1ccccc1C(=O)O.[C-]#[O+].[C-]#[O+].[C-]#[O+].[C-]#[O+].[Rh].[Rh]`, the T/C was 108 % of control under setting [6], 100 % of control under setting [7] and 94 % of control under setting [8].
Take `CS(=O)(=O)OCCN(CCOS(C)(=O)=O)c1ccc(C=Nc2ccc(-c3csc(Cc4ccccc4)n3)cc2)c(Cl)c1`: the T/C is 107 % of control and 110 % of control (dose: 6.25 mg/kg/injection, schedule: Q01DX009 (ip), vehicle: Klucel (hydroxypropylcellulose) (HPC)); 120 % of control under setting [1]; 153 % of control under setting [5].
`Nc1nc(N)n2c(N)nnc2n1`: the T/C by setting is: under setting [9], 87 % of control; under setting [10], 88 % of control.
Turning to `CCOC(=O)C(C=O)(NC(=O)c1ccccc1)OCC` (configuration not stated), the T/C under setting [2] is 102 % of control, the T/C under setting [3] is 97 % of control and the T/C under setting [4] is 100 % of control.
In the case of `COc1ccc(/C=C/c2nc3ccccc3nc2/C=C/c2ccc(OC)c(OC)c2)cc1OC`, the T/C is, setting by setting: (dose: 6.25 mg/kg/injection, schedule: Q01DX009 (ip), vehicle: carboxymethylcellulose (CMC)) 99 % of control; (dose: 12.5 mg/kg/injection, schedule: Q01DX009 (ip), vehicle: carboxymethylcellulose (CMC)) 92 % of control; (dose: 25.0 mg/kg/injection, schedule: Q01DX009 (ip), vehicle: carboxymethylcellulose (CMC)) 89 % of control.
In the case of `C/C=C\C(C)=C/C(C)C(=O)CC(O)CC1CC(=O)NC(=O)C1` (configuration not stated), the T/C runs as follows: (dose: 3.12 mg/kg/injection, schedule: Q01DX009 (ip), vehicle: DMSO) 95 % of control; (dose: 6.25 mg/kg/injection, schedule: Q01DX009 (ip), vehicle: DMSO) 119 % of control; (dose: 12.5 mg/kg/injection, schedule: Q01DX009 (ip), vehicle: DMSO) 103 % of control; (dose: 25.0 mg/kg/injection, schedule: Q01DX009 (ip), vehicle: DMSO) 96 % of control.
With `Cc1cc(Cl)ccc1NC(=O)c1ccccc1`, the T/C reads like this: under setting [6], 103 % of control; under setting [7], 99 % of control; under setting [8], 100 % of control.
Take `CC(C)=CCOc1ccc2ccc(=O)oc2c1`: the T/C is, setting by setting: (dose: 5.0 mg/kg/injection, schedule: Q01DX009 (ip), vehicle: saline with Tween-80) 108 % of control; (dose: 10.0 mg/kg/injection, schedule: Q01DX009 (ip), vehicle: saline with Tween-80) 105 % of control; (dose: 20.0 mg/kg/injection, schedule: Q01DX009 (ip), vehicle: saline with Tween-80) 99 % of control.
As for `Cc1ccc(C2NC(=O)c3ccccc3N2)s1` (configuration not stated), the T/C was 99 % of control under setting [5], 102 % of control under setting [6], 105 % of control under setting [7] and 96 % of control under setting [8].
As to `CC(=O)Oc1ccc[nH]c1=O`, the T/C reads like this: (dose: 75.0 mg/kg/injection, schedule: Q01DX009 (ip), vehicle: saline) 91 % of control and 94 % of control; (dose: 150.0 mg/kg/injection, schedule: Q01DX009 (ip), vehicle: saline) 91 % of control; under setting [3], 105 % of control; under setting [10], 90 % of control and 95 % of control; (dose: 300.0 mg/kg/injection, schedule: Q01DX009 (ip), vehicle: saline) 104 % of control and 105 % of control; under setting [4], 105 % of control. Further, the T/C (dose: 600.0 mg/kg/injection, schedule: Q01DX009 (ip), vehicle: saline with Tween-80) was 106 % of control.
Consider `O=[N+]([O-])c1ccc(/C=C/c2ccccc2)c([N+](=O)[O-])c1`, for which the T/C by setting is: (dose: 100.0 mg/kg/injection, schedule: Q04DX003 (ip), vehicle: Klucel (hydroxypropylcellulose) (HPC)) 97 % of control; (dose: 200.0 mg/kg/injection, schedule: Q04DX003 (ip), vehicle: Klucel (hydroxypropylcellulose) (HPC)) 96 % of control; (dose: 400.0 mg/kg/injection, schedule: Q04DX003 (ip), vehicle: Klucel (hydroxypropylcellulose) (HPC)) 97 % of control.
As for `Cc1ccc(/C=N\N=C\c2ccc(C)cc2)cc1`, the T/C was 100 % of control (dose: 50.0 mg/kg/injection, schedule: Q01DX009 (ip), vehicle: saline with Tween-80) and 88 % of control under setting [2].
As to `Cc1cc2c(cc1C)NC(=O)C(C)CN2` (configuration not stated), the T/C runs as follows: under setting [6], 90 % of control; under setting [7], 88 % of control; under setting [8], 87 % of control.
For the molecule `CN=C1CN(O)C(c2ccccc2)=c2cc(Cl)ccc2=N1`, the T/C runs as follows: (dose: 3.12 mg/kg/injection, schedule: Q01DX009 (ip), vehicle: saline) 115 % of control; (dose: 6.25 mg/kg/injection, schedule: Q01DX009 (ip), vehicle: saline) 101 % of control and 114 % of control; (dose: 12.5 mg/kg/injection, schedule: Q01DX009 (ip), vehicle: saline) 92 % of control and 94 % of control and 101 % of control; (dose: 25.0 mg/kg/injection, schedule: Q01DX009 (ip), vehicle: saline) 100 % of control and 101 % of control; (dose: 50.0 mg/kg/injection, schedule: Q01DX009 (ip), vehicle: saline) 114 % of control and 117 % of control; under setting [9], 100 % of control and 102 % of control.
